Measurements as given in PubChem BioAssay (NCI).
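Test compounds were applied to cells in 96-well plates for 48 hours at 5 doses. GI50: concentration for 50% inhibition of growth. TGI: total growth inhibition.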

Legend:
Assay in all cases: growth of human tumour cells (NCI), 48 h
SF-268 CNS = tested on: SF-268 CNS
K-562 leukemia = tested on: K-562 leukemia
OVCAR-5 ovarian = tested on: OVCAR-5 ovarian
NCI-H522 lung = tested on: NCI-H522 lung
MDA-MB-231 breast = tested on: MDA-MB-231 breast
UO-31 renal = tested on: UO-31 renal
RPMI-8226 leukemia = tested on: RPMI-8226 leukemia
MDA-MB-435 = tested on: MDA-MB-435
KM12 colon = tested on: KM12 colon
UACC-62 melanoma = tested on: UACC-62 melanoma
SW-620 colon = tested on: SW-620 colon
RXF 393 renal = tested on: RXF 393 renal
LOX IMVI melanoma = tested on: LOX IMVI melanoma
NCI/ADR-RES ovarian = tested on: NCI/ADR-RES ovarian
BT-549 breast = tested on: BT-549 breast
OVCAR-4 ovarian = tested on: OVCAR-4 ovarian
HCT-15 colon = tested on: HCT-15 colon
HCT-116 colon = tested on: HCT-116 colon
SF-295 CNS = tested on: SF-295 CNS
OVCAR-8 ovarian = tested on: OVCAR-8 ovarian
T-47D breast = tested on: T-47D breast
HCC-2998 colon = tested on: HCC-2998 colon
UACC-257 melanoma = tested on: UACC-257 melanoma
SR leukemia = tested on: SR leukemia
MALME-3M melanoma = tested on: MALME-3M melanoma
M14 melanoma = tested on: M14 melanoma
A549 NSCLC = tested on: A549 NSCLC
OVCAR-3 ovarian = tested on: OVCAR-3 ovarian
TK-10 renal = tested on: TK-10 renal

## COC(=O)[C@@]1(O)C[C@H]2O[C@]1(C)n1c3ccccc3c3c4c(c5c6ccccc6n2c5c31)C(=O)NC4
SF-268 CNS
  TGI: 3170 nM
K-562 leukemia
  GI50: 39.7 nM
  TGI: 1280 nM
OVCAR-5 ovarian
  GI50: 210 nM
  TGI: 8120 nM
NCI-H522 lung
  GI50: 61.6 nM
  TGI: 1710 nM
MDA-MB-231 breast
  GI50: 429 nM
  TGI: 2880 nM
UO-31 renal
  GI50: 25.6 nM
  TGI: 1370 nM
RPMI-8226 leukemia
  GI50: 78.4 nM
  TGI: 1330 nM
MDA-MB-435
  GI50: 74.5 nM
  TGI: 1600 nM
KM12 colon
  GI50: 26.9 nM
  TGI: 1070 nM
UACC-62 melanoma
  GI50: 132 nM
  TGI: 1550 nM
SW-620 colon
  GI50: 147 nM
  TGI: 3110 nM
RXF 393 renal
  GI50: 159 nM
  TGI: 1490 nM
LOX IMVI melanoma
  GI50: 197 nM
  TGI: 1210 nM
NCI/ADR-RES ovarian
  GI50: 415 nM
  TGI: 3560 nM
BT-549 breast
  GI50: 295 nM
  TGI: 1910 nM
OVCAR-4 ovarian
  GI50: 1240 nM
  TGI: 2760 nM
HCT-15 colon
  GI50: 70.6 nM
  TGI: 2500 nM
HCT-116 colon
  GI50: 102 nM
  TGI: 2240 nM
SF-295 CNS
  GI50: 661 nM
  TGI: 2310 nM
OVCAR-8 ovarian
  GI50: 589 nM
  TGI: 4080 nM
T-47D breast
  GI50: 80.5 nM
  TGI: 2050 nM
HCC-2998 colon
  GI50: 609 nM
  TGI: 2800 nM
UACC-257 melanoma
  GI50: 527 nM
  TGI: 3330 nM
SR leukemia
  GI50: 68.6 nM
  TGI: 1750 nM
MALME-3M melanoma
  GI50: 186 nM
  TGI: 1520 nM
M14 melanoma
  GI50: 35.5 nM
  TGI: 1150 nM
A549 NSCLC
  GI50: 240 nM
  TGI: 2850 nM
OVCAR-3 ovarian
  GI50: 587 nM
  TGI: 3220 nM
TK-10 renal
  GI50: 28.4 nM
  TGI: 1390 nM
